Patent US8148391B2 (Cephalon, Inc., priority 2006, dated 2012)
pIC50: −log10 of the molar value. Read-outs that look alike come from different tables or passages of the source.

What was measured:
[1] = molecular target: T1, baculovirus-expressed ALK (Homo sapiens, UniProt Q9UM73); assay: ALK Kinase Assay (ELISA-type, time-resolved fluorescence); assay type: biochemical; conditions: 1 μM ATP (Km level)
T1 construct: host or cells: baculovirus expression system
How it was run: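 Substrate coating: phospholipase C-γ, 10 μg/mL in TBS. Kinase step: 30 ng/ml ALK, 15 min, 37° C. Detection and analysis: Eu-N1 PT66 antibody, with IC50 fitted as a sigmoidal variable-slope dose-response curve.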

[2] = molecular target: T2, c-Met (cytoplasmic domain) (Homo sapiens, UniProt P08581); assay: c-Met Kinase Assay (same methods as for ALK, with modifications); assay type: biochemical; conditions: 1 μM ATP (Km level)
T2 construct: 10 ng/mL c-Met (cytoplasmic domain, Invitrogen Corporation #PV3143); purchased Invitrogen Corporation PV3143
T2 sequence (P08581 956-1390 limits assumed): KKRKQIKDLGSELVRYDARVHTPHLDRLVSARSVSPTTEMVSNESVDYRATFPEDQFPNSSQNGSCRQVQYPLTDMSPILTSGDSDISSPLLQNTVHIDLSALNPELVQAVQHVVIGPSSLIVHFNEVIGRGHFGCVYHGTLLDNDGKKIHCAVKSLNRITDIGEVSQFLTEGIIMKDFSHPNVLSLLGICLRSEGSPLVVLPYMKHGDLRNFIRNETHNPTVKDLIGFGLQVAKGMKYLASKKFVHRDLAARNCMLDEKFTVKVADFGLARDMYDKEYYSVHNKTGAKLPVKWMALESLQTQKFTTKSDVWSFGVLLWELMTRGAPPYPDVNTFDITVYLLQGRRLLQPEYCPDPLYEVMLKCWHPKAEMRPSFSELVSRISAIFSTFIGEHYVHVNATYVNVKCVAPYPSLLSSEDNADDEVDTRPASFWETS
How it was run: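 Wells were coated with 10 μg/mL phospholipase C-γ substrate in TBS, and reactions were started with 10 ng/mL c-Met cytoplasmic domain and run at 37° C for 15 minutes. Phosphorylated product was detected with Eu-N1-labeled PT66 antibody. IC50 values came from sigmoidal variable-slope fits of percent inhibition versus log compound concentration.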

[3] = ALK kinase inhibition, read-out: ALK Activity
[4] = c-Met kinase inhibition, read-out: cMet Activity
[5] = read-out: ALK Activity (ALK Kinase Inhibition, IC50)
[6] = read-out: cMet Activity (c-Met Kinase Inhibition, IC50)
[7] = 30 ng/ml ALK, 37° C., 15 minutes, read-out: ALK Activity (ALK kinase inhibition, IC50 class)
[8] = 10 ng/mL c-Met, read-out: cMet Activity (c-Met kinase inhibition, IC50 class)

T1 sequence (Q9UM73 19-1620): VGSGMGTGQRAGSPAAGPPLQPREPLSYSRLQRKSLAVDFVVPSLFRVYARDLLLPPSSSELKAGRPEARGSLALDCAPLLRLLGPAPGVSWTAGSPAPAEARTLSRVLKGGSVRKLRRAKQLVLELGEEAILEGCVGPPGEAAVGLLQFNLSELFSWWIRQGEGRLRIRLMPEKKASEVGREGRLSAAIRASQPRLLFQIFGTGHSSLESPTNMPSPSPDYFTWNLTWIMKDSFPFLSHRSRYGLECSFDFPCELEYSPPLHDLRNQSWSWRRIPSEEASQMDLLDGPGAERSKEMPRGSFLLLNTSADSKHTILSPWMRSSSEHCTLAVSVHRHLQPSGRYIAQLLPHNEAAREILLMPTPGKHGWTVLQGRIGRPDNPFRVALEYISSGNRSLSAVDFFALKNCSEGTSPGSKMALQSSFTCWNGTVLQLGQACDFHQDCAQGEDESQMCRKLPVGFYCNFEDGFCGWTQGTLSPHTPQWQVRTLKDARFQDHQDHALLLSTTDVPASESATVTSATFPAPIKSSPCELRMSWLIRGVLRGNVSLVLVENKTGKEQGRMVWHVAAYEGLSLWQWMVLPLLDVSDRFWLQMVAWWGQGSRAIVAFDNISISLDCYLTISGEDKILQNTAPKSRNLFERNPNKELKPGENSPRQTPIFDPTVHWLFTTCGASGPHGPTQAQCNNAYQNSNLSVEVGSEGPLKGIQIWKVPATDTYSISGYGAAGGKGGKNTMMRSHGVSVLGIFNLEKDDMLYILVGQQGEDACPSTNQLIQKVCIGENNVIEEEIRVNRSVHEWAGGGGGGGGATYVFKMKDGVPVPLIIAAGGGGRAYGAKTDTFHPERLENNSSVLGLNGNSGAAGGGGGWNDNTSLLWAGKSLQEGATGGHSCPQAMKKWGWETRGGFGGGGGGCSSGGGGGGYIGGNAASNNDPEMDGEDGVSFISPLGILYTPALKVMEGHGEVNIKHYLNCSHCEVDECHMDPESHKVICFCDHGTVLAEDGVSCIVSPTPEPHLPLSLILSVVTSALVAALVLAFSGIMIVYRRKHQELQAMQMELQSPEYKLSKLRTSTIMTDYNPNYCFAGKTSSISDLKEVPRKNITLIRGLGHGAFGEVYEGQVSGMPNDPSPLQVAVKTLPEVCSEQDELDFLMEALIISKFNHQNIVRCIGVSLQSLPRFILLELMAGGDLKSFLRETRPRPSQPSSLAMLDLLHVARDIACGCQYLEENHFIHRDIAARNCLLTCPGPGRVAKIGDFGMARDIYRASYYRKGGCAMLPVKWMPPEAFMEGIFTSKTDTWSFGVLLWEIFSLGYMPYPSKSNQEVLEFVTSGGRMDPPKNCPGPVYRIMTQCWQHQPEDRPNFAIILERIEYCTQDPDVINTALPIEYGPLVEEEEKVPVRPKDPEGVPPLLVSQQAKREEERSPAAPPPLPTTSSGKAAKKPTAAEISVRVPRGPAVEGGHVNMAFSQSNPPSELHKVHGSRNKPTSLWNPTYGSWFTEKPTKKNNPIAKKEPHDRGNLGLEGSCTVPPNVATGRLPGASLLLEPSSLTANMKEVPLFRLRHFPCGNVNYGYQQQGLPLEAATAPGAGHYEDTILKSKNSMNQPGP

For COCCN1CCc2ccc(Nc3ncc(Cl)c(N[C@@H]4CCC[C@H]4NS(C)(=O)=O)n3)cc2CC1 (relative stereo) [Example 371, N-(trans-2-{5-Chloro-2-[3-(2-methoxy-ethyl)-2,3,4,5-tetrahydro-1H-benzo[d]azepin-7-ylamino]-pyrimidin-4-ylamino}-cyclopentyl)-methanesulfonamide], the pIC50 [1, 3] was 6.00 to 7.00 and the pIC50 [2, 4] was 5.00 to 6.00.

With CNC(=O)[C@@H]1CCC[C@@H]1Nc1nc(Nc2ccc3c(c2)CCN(CCOC)CC3)ncc1Cl (relative stereo) [Example 372, cis-2-{5-Chloro-2-[3-(2-methoxy-ethyl)-2,3,4,5-tetrahydro-1H-benzo[d]azepin-7-ylamino]-pyrimidin-4-ylamino}-cyclopentanecarboxylic acid methylamide] the pIC50 [1, 3] was greater than 7.00 and the pIC50 [2, 4] was 6.00 to 7.00.

Compound CCN1C(=O)CCCc2c1ccc(Nc1ncc(Cl)c(N[C@H]3CCC[C@H]3C(=O)NC)n1)c2OC (relative stereo) [Example 373, cis-2-[5-Chloro-2-(1-ethyl-6-methoxy-2-oxo-2,3,4,5-tetrahydro-1H-benzo[b]azepin-7-ylamino)-pyrimidin-4-ylamino]-cyclopentanecarboxylic acid methylamide] has a pIC50 [1, 3] greater than 7.00 and a pIC50 [2, 4] of less than 5.00.

For CCN1C(=O)CCCc2c1ccc(Nc1ncc(Cl)c(N[C@@H]3CCC[C@H]3NS(C)(=O)=O)n1)c2OC (relative stereo) [Example 374, N-{trans-2-[5-Chloro-2-(1-ethyl-6-methoxy-2-oxo-2,3,4,5-tetrahydro-1H-benzo[b]azepin-7-ylamino)-pyrimidin-4-ylamino]-cyclopentyl}-methanesulfonamide], the pIC50 [1, 3] was 6.00 to 7.00 and the pIC50 [2, 4] was less than 5.00.

Work on CNC(=O)[C@@H]1CCC[C@@H]1Nc1nc(Nc2cc3c(cc2OC)CCN(CC(=O)N(C)C)CC3)ncc1Cl (relative stereo) [Example 375, cis-2-[5-Chloro-2-(3-dimethylcarbamoylmethyl-8-methoxy-2,3,4,5-tetrahydro-1H-benzo[d]azepin-7-ylamino)-pyrimidin-4-ylamino]-cyclopentanecarboxylic acid methylamide] yielded a pIC50 [1, 3] greater than 7.00 and a pIC50 [2, 4] of less than 5.00.

CN1C(=O)CCC(C)(C)c2cc(Nc3ncc(Cl)c(N[C@H]4[C@@H](C(N)=O)[C@@H]5C=C[C@H]4C5)n3)ccc21 (relative stereo) [Example 386, (2-exo, 3-exo)-3-[5-Chloro-2-(1,5,5-trimethyl-2-oxo-2,3,4,5-tetrahydro-1H-benzo[b]azepin-7-ylamino)-pyrimidin-4-ylamino]-bicyclo[2.2.1]hept-5-ene-2-carboxylic acid amide] gave a pIC50 [1, 3] greater than 7.00 and a pIC50 [2, 4] of 6.00 to 7.00.

For COCCN1CCc2ccc(Nc3ncc(Cl)c(N[C@@H]4[C@H](C(N)=O)[C@@H]5C=C[C@H]4C5)n3)cc2CC1 (relative stereo) [Example 459, (2-endo, 3-endo)-3-{5-Chloro-2-[3-(2-methoxy-ethyl)-2,3,4,5-tetrahydro-1H-benzo[d]azepin-7-ylamino]-pyrimidin-4-ylamino}-bicyclo[2.2.1]hept-5-ene-2-carboxylic acid amide], the pIC50 [1, 3] was greater than 7.00 and the pIC50 [2, 4] was 5.00 to 6.00.

For CCN1C(=O)CCCc2c1ccc(Nc1ncc(Cl)c(N[C@H]3[C@@H](C(=O)NC)[C@@H]4C=C[C@H]3C4)n1)c2OC (relative stereo) [Example 601, (2-exo-3-exo)-3-[5-Chloro-2-(1-ethyl-6-methoxy-2-oxo-2,3,4,5-tetrahydro-1H-benzo[b]azepin-7-ylamino)-pyrimidin-4-ylamino]-bicyclo[2.2.1]hept-5-ene-2-carboxylic acid methylamide], the pIC50 [1, 5] was greater than 7.00 and the pIC50 [2, 6] was less than 5.00.

With CNC(=O)[C@H]1[C@@H](Nc2nc(Nc3ccc4c(c3)CCN(CCOC)CC4)ncc2Cl)[C@@H]2C=C[C@H]1C2 (relative stereo) [Example 615, (2-exo-3-exo)-3-{5-Chloro-2-[3-(2-methoxy-ethyl)-2,3,4,5-tetrahydro-1H-benzo[d]azepin-7-ylamino]-pyrimidin-4-ylamino}-bicyclo[2.2.1]hept-5-ene-2-carboxylic acid methylamide] the pIC50 [1, 5] was greater than 7.00 and the pIC50 [2, 6] was 6.00 to 7.00.

With CNC(=O)[C@@H]1[C@H](Nc2nc(Nc3ccc4c(c3)C(C)(C)CCC(=O)N4)ncc2Cl)[C@H]2C=C[C@@H]1C2 (relative stereo) [Example 620, (2-exo-3-exo)-3-[5-Chloro-2-(5,5-dimethyl-2-oxo-2,3,4,5-tetrahydro-1H-benzo[b]azepin-7-ylamino)-pyrimidin-4-ylamino]-bicyclo[2.2.1]hept-5-ene-2-carboxylic acid methylamide] the pIC50 [1, 5] was greater than 7.00 and the pIC50 [2, 6] was 6.00 to 7.00.

In the case of COc1cc2c(cc1Nc1ncc(Cl)c(N[C@H]3[C@@H](C(N)=O)[C@@H]4C=C[C@H]3C4)n1)CCN(CC(F)F)CC2 (relative stereo) [Example 763, (2-exo,3-exo)-3-{5-Chloro-2-[3-(2,2-difluoro-ethyl)-8-methoxy-2,3,4,5-tetrahydro-1H-benzo[d]azepin-7-ylamino]-pyrimidin-4-ylamino}-bicyclo[2.2.1]hept-5-ene-2-carboxylic acid amide], the pIC50 [1, 5] was greater than 7.00 and the pIC50 [2, 6] was less than 5.00.

COCCN1CCc2ccc(Nc3ncc(Cl)c(N[C@@H]4CCC[C@@H](NS(C)(=O)=O)C4)n3)cc2CC1 (relative stereo) [Example 1379, rel-N-((1R,3R)-3-{5-Chloro-2-[3-(2-methoxy-ethyl)-2,3,4,5-tetrahydro-1H-benzo[d]azepin-7-ylamino]-pyrimidin-4-ylamino}-cyclohexyl)-methanesulfonamide] was tested, and the pIC50 [1, 7] was 5.00 to 6.00 and the pIC50 [2, 8] was 5.00 to 6.00.

Compound COCCN1CCc2ccc(Nc3ncc(Cl)c(N[C@@H]4CCC[C@H](NS(C)(=O)=O)C4)n3)cc2CC1 (relative stereo) [Example 1380, rel-N-((1S,3R)-3-{5-Chloro-2-[3-(2-methoxy-ethyl)-2,3,4,5-tetrahydro-1H-benzo[d]azepin-7-ylamino]-pyrimidin-4-ylamino}-cyclohexyl)-methanesulfonamide] has a pIC50 [1, 7] of 5.00 to 6.00 and a pIC50 [2, 8] of less than 5.00.

Work on COCCN1CCc2ccc(Nc3ncc(Cl)c(N[C@@H]4CCC[C@@H](N(CC#N)S(C)(=O)=O)C4)n3)cc2CC1 (relative stereo) [Example 1382, rel-N-((1R,3R)-3-{5-Chloro-2-[3-(2-methoxy-ethyl)-2,3,4,5-tetrahydro-1H-benzo[d]azepin-7-ylamino]-pyrimidin-4-ylamino}-cyclohexyl)-N-cyanomethyl-methanesulfonamide] yielded a pIC50 [1, 7] of 6.00 to 7.00 and a pIC50 [2, 8] of 5.00 to 6.00.

In the case of COCCN1CCc2ccc(Nc3ncc(Cl)c(N[C@@H]4CCC[C@H](N(CC#N)S(C)(=O)=O)C4)n3)cc2CC1 (relative stereo) [Example 1386, rel-N-((1S,3R)-3-{5-Chloro-2-[3-(2-methoxy-ethyl)-2,3,4,5-tetrahydro-1H-benzo[d]azepin-7-ylamino]-pyrimidin-4-ylamino}-cyclohexyl)-N-cyanomethyl-methanesulfonamide], the pIC50 [1, 7] was 6.00 to 7.00 and the pIC50 [2, 8] was 5.00 to 6.00.

Compound CNC(=O)c1ccccc1Nc1nc(Nc2ccc3c(c2)C2CN(S(C)(=O)=O)CC3O2)ncc1Cl (single isomer, unassigned) [Example 183, 2-[5-Chloro-2-(10-methanesulfonyl-12-oxa-10-aza-tricyclo[6.3.1.0*2,7*]dodeca-2(7),3,5-trien-4-ylamino)-pyrimidin-4-ylamino]-N-methyl-benzamide] has a pIC50 [1, 3] greater than 7.00 and a pIC50 [2, 4] greater than 7.00.

NC(=O)[C@@H]1[C@H](Nc2nc(Nc3ccc4c(c3)CCC(N3CCOCC3)CC4)ncc2Cl)[C@H]2C=C[C@@H]1C2 (single isomer, unassigned) [Example 681] showed a pIC50 [1, 5] greater than 7.00 and a pIC50 [2, 6] of 6.00 to 7.00.

NC(=O)[C@@H]1[C@H](Nc2nc(Nc3ccc4c(c3)CCC(N3CCOCC3)CC4)ncc2Cl)[C@H]2C=C[C@@H]1C2 (single isomer, unassigned) [Example 682] gave a pIC50 [1, 5] greater than 7.00 and a pIC50 [2, 6] of 6.00 to 7.00.

Work on COCCNC1CCc2ccc(Nc3ncc(Cl)c(N[C@@H]4CCCC[C@H]4NS(C)(=O)=O)n3)c(OC)c2CC1 (single isomer, unassigned) [Example 693] yielded a pIC50 [1, 5] greater than 7.00 and a pIC50 [2, 6] of less than 5.00.

For COCCNC1CCc2ccc(Nc3ncc(Cl)c(N[C@@H]4CCCC[C@H]4NS(C)(=O)=O)n3)c(OC)c2CC1 (single isomer, unassigned) [Example 694], the pIC50 [1, 5] was greater than 7.00 and the pIC50 [2, 6] was less than 5.00.

COc1c(Nc2ncc(Cl)c(N[C@H]3[C@@H](C(N)=O)[C@@H]4C=C[C@H]3C4)n2)ccc2c1CCC(NCCO)CC2 (single isomer, unassigned) [Example 696] showed a pIC50 [1, 5] greater than 7.00 and a pIC50 [2, 6] of less than 5.00.

COc1c(Nc2ncc(Cl)c(N[C@H]3[C@@H](C(N)=O)[C@@H]4C=C[C@H]3C4)n2)ccc2c1CCC(NCCO)CC2 (single isomer, unassigned) [Example 697] showed a pIC50 [1, 5] greater than 7.00 and a pIC50 [2, 6] of 5.00 to 6.00.

Work on COc1c(Nc2ncc(Cl)c(N[C@@H]3CCCC[C@H]3NS(C)(=O)=O)n2)ccc2c1CCC(NCCO)CC2 (single isomer, unassigned) [Example 698] yielded a pIC50 [1, 5] greater than 7.00 and a pIC50 [2, 6] of less than 5.00.

COc1c(Nc2ncc(Cl)c(N[C@@H]3CCCC[C@H]3NS(C)(=O)=O)n2)ccc2c1CCC(NCCO)CC2 (single isomer, unassigned) [Example 699] gave a pIC50 [1, 5] greater than 7.00 and a pIC50 [2, 6] of less than 5.00.

COCCN(C)C1CCc2ccc(Nc3ncc(Cl)c(N[C@H]4[C@@H](C(N)=O)[C@@H]5C=C[C@H]4C5)n3)c(OC)c2CC1 (single isomer, unassigned) [Example 700] gave a pIC50 [1, 5] greater than 7.00 and a pIC50 [2, 6] of less than 5.00.
